Source: ChEMBL document CHEMBL4665709, “Rational Avoidance of Protease Cleavage Sites and Symmetrical End-Tagging Significantly Enhances the Stability and Therapeutic Potential of Antimicrobial Peptides” (J Med Chem, 2020)
≈ marks a conversion by molar mass, not a printed value. Where a SMILES comes first, the peptide text is derived from it.

Experiments:
[1] = Therapeutic index, ratio of MHC for human RBC to geometric mean of peptide MIC for Streptococcus agalactiae H92; type: toxicity; details: human red blood cells (RBC), read-out: TI
[2] = Therapeutic index, ratio of MHC for human RBC to geometric mean of peptide MIC for Staphylococcus epidermidis ATCC 12228; type: toxicity; details: human red blood cells (RBC), read-out: TI
[3] = Therapeutic index, ratio of MHC for human RBC to geometric mean of peptide MIC for methicillin-resistant Staphylococcus aureus 43300; type: toxicity; details: human red blood cells (RBC), read-out: TI
[4] = Therapeutic index, ratio of MHC for human RBC to geometric mean of peptide MIC for Enterococcus faecalis ATCC 29212; type: toxicity; details: human red blood cells (RBC), read-out: TI
[5] = Therapeutic index, ratio of MHC for human RBC to geometric mean of peptide MIC for Staphylococcus aureus ATCC 29213; type: toxicity; details: human red blood cells (RBC), read-out: TI
[6] = Therapeutic index, ratio of MHC for human RBC to geometric mean of peptide MIC for Staphylococcus aureus 11011; type: toxicity; details: human red blood cells (RBC), read-out: TI
[7] = Therapeutic index, ratio of MHC for human RBC to geometric mean of peptide MIC for Salmonella pullorum 7913; type: toxicity; details: human red blood cells (RBC), read-out: TI
[8] = Therapeutic index, ratio of MHC for human RBC to geometric mean of peptide MIC for Salmonella typhimurium 7731; type: toxicity; details: human red blood cells (RBC), read-out: TI
[9] = Therapeutic index, ratio of MHC for human RBC to geometric mean of peptide MIC for Salmonella choleraesuis 503; type: toxicity; details: human red blood cells (RBC), read-out: TI
[10] = Therapeutic index, ratio of MHC for human RBC to geometric mean of peptide MIC for Escherichia coli UB1005; type: toxicity; details: human red blood cells (RBC), read-out: TI
[11] = Therapeutic index, ratio of MHC for human RBC to geometric mean of peptide MIC for Salmonella typhimurium 14028; type: toxicity; details: human red blood cells (RBC), read-out: TI
[12] = Therapeutic index, ratio of MHC for human RBC to geometric mean of peptide MIC for Escherichia coli ATCC 25922; type: toxicity; details: human red blood cells (RBC), read-out: TI
Staphylococcus aureus [13] = assay: Antibacterial activity against Staphylococcus aureus ATCC 29213 after 18 to 24 hrs by CLSI-based broth microdilution method; type: functional; details: time hrs 18-24
Staphylococcus aureus [14] = assay: Antibacterial activity against Staphylococcus aureus 11011 after 18 to 24 hrs by CLSI-based broth microdilution method; type: functional; details: time hrs 18-24
Escherichia coli [15] = assay: Antibacterial activity against Escherichia coli ATCC 25922 after 18 to 24 hrs by CLSI-based broth microdilution method; type: functional; details: time hrs 18-24
Escherichia coli [16] = assay: Antibacterial activity against Escherichia coli UB1005 after 18 to 24 hrs by CLSI-based broth microdilution method; type: functional; details: time hrs 18-24
Salmonella typhimurium [17] = assay: Antibacterial activity against Salmonella typhimurium 14028 after 18 to 24 hrs by CLSI-based broth microdilution method; type: functional, Salmonella enterica subsp. enterica serovar Typhimurium; details: Salmonella enterica, time hrs 18-24
Salmonella typhimurium [18] = assay: Antibacterial activity against Salmonella typhimurium 7731 after 18 to 24 hrs by CLSI-based broth microdilution method; type: functional, Salmonella enterica subsp. enterica serovar Typhimurium; details: Salmonella enterica, time hrs 18-24
[19] = Antibacterial activity against Salmonella pullorum 7913 after 18 to 24 hrs by CLSI-based broth microdilution method; type: functional, Salmonella enterica subsp. enterica serovar Pullorum; details: Salmonella enterica, time hrs 18-24
Salmonella enterica = assay: Antibacterial activity against Salmonella choleraesuis 503 after 18 to 24 hrs by CLSI-based broth microdilution method; type: functional; details: time hrs 18-24
[20] = test system: Staphylococcus epidermidis; assay: Antibacterial activity against Staphylococcus epidermidis ATCC 12228 after 18 to 24 hrs by CLSI-based broth microdilution method; type: functional; details: time hrs 18-24
Enterococcus faecalis = assay: Antibacterial activity against Enterococcus faecalis ATCC 29212 after 18 to 24 hrs by CLSI-based broth microdilution method; type: functional; details: time hrs 18-24
Staphylococcus aureus [21] = assay: Antibacterial activity against methicillin-resistant Staphylococcus aureus 43300 after 18 to 24 hrs by CLSI-based broth microdilution method; type: functional; details: time hrs 18-24
Streptococcus agalactiae = assay: Antibacterial activity against Streptococcus agalactiae H92 after 18 to 24 hrs by CLSI-based broth microdilution method; type: functional; details: time hrs 18-24
Erythrocyte = assay: Hemolytic activity in human RBC assessed as hemolysis; type: ADME, cell-based
[22] = Hemolytic activity in human RBC assessed as hemolysis at 1 to 128 uM relative to control; type: ADME, cell-based, Erythrocyte; details: human red blood cells (RBC), dose 1-128 µM, read-out: Activity
[23] = Cytotoxicity against mouse RAW264.7 cells assessed as cell viability at 128 uM by MTT assay relative to control; type: cell-based; details: read-out: Activity
[24] = Cytotoxicity against HEK-293T cells assessed as cell viability at 128 uM by MTT assay relative to control; type: cell-based; details: human, read-out: Activity

SMILES | selectivity ratio [1] | selectivity ratio [2] | selectivity ratio [3] | selectivity ratio [4] | selectivity ratio [5] | selectivity ratio [6] | selectivity ratio [7] | selectivity ratio [8] | selectivity ratio [9] | selectivity ratio [10] | selectivity ratio [11] | selectivity ratio [12] | MIC (Staphylococcus aureus [13]) [µM] | MIC (Staphylococcus aureus [14]) [µM] | MIC (Escherichia coli [15]) [µM] | MIC (Escherichia coli [16]) [µM] | MIC (Salmonella typhimurium [17]) [µM] | MIC (Salmonella typhimurium [18]) [µM] | MIC [19] [µM] | MIC (Salmonella enterica) [µM] | also measured
CC[C@H](C)[C@H](N)C(=O)N[C@H](C(=O)N[C@@H](CS)C(=O)N[C@@H](CCCNC(=N)N)C(=O)N[C@@H](CCCCN)C(=O)N1CCC[C@H]1C(=O)N[C@H](C(=O)N[C@H](C(=O)N[C@@H](CS)C(=O)N[C@@H](CCCNC(=N)N)C(=O)N[C@@H](CCCCN)C(=O)N1CCC[C@H]1C(=O)N[C@H](C(=O)N[C@H](C(=O)N[C@@H](CS)C(=O)N[C@@H](CCCNC(=N)N)C(=O)N[C@@H](CCCCN)C(=O)N1CCC[C@H]1C(=O)N[C@H](C(=O)N[C@H](C(N)=O)[C@@H](C)CC)[C@@H](C)CC)[C@@H](C)CC)[C@@H](C)CC)[C@@H](C)CC)[C@@H](C)CC)[C@@H](C)CC (H-IICRKPIICRKPIICRKPII-NH2) | 2 | 2 | 2 | 2 | 2 | 2 | 14.2 | 14.2 | 14.2 | 14.2 | 14.2 | 14.2 | > 64 | > 64 | 4 (≈ 9.5 µg/mL) | 4 (≈ 9.5 µg/mL) | 8 (≈ 19 µg/mL) | 8 (≈ 19 µg/mL) | 32 (≈ 76 µg/mL) | 16 (≈ 38 µg/mL) | MIC [20]: 64 µM (≈ 152 µg/mL); MIC (Enterococcus faecalis): > 64 µM; MIC (Staphylococcus aureus [21]): 64 µM (≈ 152 µg/mL); MIC (Streptococcus agalactiae): 64 µM (≈ 152 µg/mL); MHC (Erythrocyte): > 128 µM; hemolysis at up to 128 µM [22]: < 5%; viability at 128 µM [23]: > 90%; viability at 128 µM [24]: > 90%
CC[C@H](C)[C@H](N)C(=O)N[C@H](C(=O)N[C@@H](CS)C(=O)N[C@@H](CCCNC(=N)N)C(=O)N[C@@H](CCCCN)C(=O)N1CCC[C@H]1C(=O)N[C@H](C(=O)N[C@H](C(=O)N[C@@H](CS)C(=O)N[C@@H](CCCNC(=N)N)C(=O)N[C@@H](CCCCN)C(=O)N1CCC[C@H]1C(=O)N[C@H](C(=O)N[C@H](C(=O)N[C@@H](CS)C(=O)N[C@@H](CCCNC(=N)N)C(=O)N[C@@H](CCCCN)C(=O)N1CCC[C@H]1C(=O)N[C@H](C(=O)N[C@H](C(=O)N[C@@H](CS)C(=O)N[C@@H](CCCNC(=N)N)C(=O)N[C@@H](CCCCN)C(=O)N1CCC[C@H]1C(=O)N[C@H](C(=O)N[C@H](C(=O)N[C@@H](CS)C(=O)N[C@@H](CCCNC(=N)N)C(=O)N[C@@H](CCCCN)C(=O)N1CCC[C@H]1C(=O)N[C@H](C(=O)N[C@H](C(N)=O)[C@@H](C)CC)[C@@H](C)CC)[C@@H](C)CC)[C@@H](C)CC)[C@@H](C)CC)[C@@H](C)CC)[C@@H](C)CC)[C@@H](C)CC)[C@@H](C)CC)[C@@H](C)CC)[C@@H](C)CC (H-IICRKPIICRKPIICRKPIICRKPIICRKPII-NH2) | 2 | 2 | 2 | 2 | 2 | 2 | 40.3 | 40.3 | 40.3 | 40.3 | 40.3 | 40.3 | > 64 | > 64 | 2 (≈ 7.6 µg/mL) | 2 (≈ 7.6 µg/mL) | 4 (≈ 15.2 µg/mL) | 2 (≈ 7.6 µg/mL) | 8 (≈ 30.4 µg/mL) | 4 (≈ 15.2 µg/mL) | MIC [20]: 64 µM (≈ 243 µg/mL); MIC (Enterococcus faecalis): > 64 µM; MIC (Staphylococcus aureus [21]): 64 µM (≈ 243 µg/mL); MIC (Streptococcus agalactiae): > 64 µM; MHC (Erythrocyte): > 128 µM; hemolysis at up to 128 µM [22]: < 5%; viability at 128 µM [23]: > 90%; viability at 128 µM [24]: > 90%
CC[C@H](C)[C@H](N)C(=O)N[C@H](C(=O)N[C@H](C(=O)N[C@@H](CS)C(=O)N[C@@H](CCCNC(=N)N)C(=O)N[C@@H](CCCCN)C(=O)N1CCC[C@H]1C(=O)N[C@H](C(=O)N[C@H](C(=O)N[C@@H](CS)C(=O)N[C@@H](CCCNC(=N)N)C(=O)N[C@@H](CCCCN)C(=O)N1CCC[C@H]1C(=O)N[C@H](C(=O)N[C@H](C(=O)N[C@@H](CS)C(=O)N[C@@H](CCCNC(=N)N)C(=O)N[C@@H](CCCCN)C(=O)N1CCC[C@H]1C(=O)N[C@H](C(=O)N[C@H](C(=O)N[C@@H](CS)C(=O)N[C@@H](CCCNC(=N)N)C(=O)N[C@@H](CCCCN)C(=O)N1CCC[C@H]1C(=O)N[C@H](C(=O)N[C@H](C(=O)N[C@@H](CS)C(=O)N[C@@H](CCCNC(=N)N)C(=O)N[C@@H](CCCCN)C(=O)N1CCC[C@H]1C(=O)N[C@H](C(=O)N[C@H](C(=O)N[C@H](C(N)=O)[C@@H](C)CC)[C@@H](C)CC)[C@@H](C)CC)[C@@H](C)CC)[C@@H](C)CC)[C@@H](C)CC)[C@@H](C)CC)[C@@H](C)CC)[C@@H](C)CC)[C@@H](C)CC)[C@@H](C)CC)[C@@H](C)CC)[C@@H](C)CC (H-IIICRKPIICRKPIICRKPIICRKPIICRKPIII-NH2) | 2 | 2 | 2 | 2 | 2 | 2 | 32 | 32 | 32 | 32 | 32 | 32 | > 64 | > 64 | 4 (≈ 16.1 µg/mL) | 2 (≈ 8.05 µg/mL) | 4 (≈ 16.1 µg/mL) | 4 (≈ 16.1 µg/mL) | 8 (≈ 32.2 µg/mL) | 4 (≈ 16.1 µg/mL) | MIC [20]: > 64 µM; MIC (Enterococcus faecalis): > 64 µM; MIC (Staphylococcus aureus [21]): > 64 µM; MIC (Streptococcus agalactiae): > 64 µM; MHC (Erythrocyte): > 128 µM; hemolysis at up to 128 µM [22]: < 5%; viability at 128 µM [23]: > 90%; viability at 128 µM [24]: > 90%
